Where no end group is shown, it is not given here.

These results are taken from patent US8557512B2, “Method of screening activators and/or inhibitors of insulin receptor substrate 2” (HMI Medical Innovations, LLC, priority 2003, dated 2013).

Assay [1] has as its system IRS2. The assay can be described thus: IRS2 levels in human islets. It is filed as cell-based. From the text:
(§1) Drugs that increase IRS2 expression in mice stimulate beta cell function. An example of such a drug is exendin-4. Exendin-4 is a homolog of the natural peptide produced in the intestine called glucagon-like peptide-1. GLP1/Ex4 upregulates IRS2 levels in β-cells because they stimulate the production of cAMP. […] Other drugs that increase cAMP levels in these and other cells also increase IRS2 levels and stimulate its signaling pathways. Many of the positive actions of GLPL1/Ex4 on mouse and human cells are prevented by blocking the IRS2 gene from expressing its IRS2 protein product.

Assay [2] deals with IRS2. Briefly: IRS2 levels in mouse islets. In kind it is cell-based.
Description: as §1

In assay [3] the test system is IRS2. Briefly: IRS2 upregulation in beta cells and other cells. In kind it is cell-based. The text has this: (§2) Furthermore, GLP-1 also stimulates β-cell proliferation and neogenesis, and reduces or eliminates apoptosis of β-cells.
Assay [4] has as its system IRS2. Particulars: β-cell lines; Jhala et al., Genes Dev. 17:1575-1580 (2003); cited from earlier work.
Another assay relates to IRS2 mice. Briefly: Restoration of normal glucose homeostasis in IRS2 mice. In kind it is in vivo. The conditions noted are these: administration by injection.
Description: as §2

As for “glucagon-like peptide-1 (HAEGTFTSDVSSYLEGQAAKEFIAWLVKGR; ends and bridges not checked; UniProt P01275 98-127, looked up) [GLP-1, natural peptide produced in the intestine]”, the “levels of IRS2” value in the assay on IRS2 [1] and in the assay on IRS2 [2] was “upregulate the levels of IRS2” each time. Further, the IRS2 upregulation result with IRS2 [3] was “strongly up regulates IRS2”. In the assay on IRS2 [4], the IRS2 expression result is given as “strongly increases IRS2 expression”.

exendin-4: the “levels of IRS2” value in the assay with IRS2 [1] and with IRS2 [2] was “upregulate the levels of IRS2” each time. Besides, the “restore normal glucose homeostasis” value in the assay on IRS2 mice is “unsuccessful”. Further, the IRS2 expression entry in the assay with IRS2 [4] is reported as “strongly increases IRS2 expression”.
